Test results as given in patent US20240270809A1, “ORAL GLP RECEPTOR AGONISTS” (priority 2020, published 2024).
Positions of bridges follow the written chain, without caps; N, C: chain ends. Non-standard residues stand in square brackets, D forms with d. Residues, ends and D or L forms follow the SMILES beside them. *: point of attachment. Malonyl(2,2-Me2,histaminyl) = CC(C)(C(=O)NCCc1cnc[nH]1)C(=O)*; Ala(1H-tetrazol-5-yl) = N[C@@H](Cc1nnn[nH]1)C(=O)O; αMePhe(2-F) = C[C@](N)(Cc1ccccc1F)C(=O)O; Nle = CCCC[C@H](N)C(=O)O; Aib = CC(C)(N)C(=O)O

Key:
[1] = target: T1, human GLP1 receptor (Homo sapiens, UniProt P43220); test: cAMP accumulation assay, functional agonism of human GLP1 receptor; format: cell-based; settings: HEK cells infected with human GLP1 receptor BacMam virus, HTRF cAMP; for Emax: HEK293, read-out: Human GLP-1R agonist cAMP Emax; for EC50: read-out: Human GLP-1R agonist cAMP pEC50 (converted)
T1 construct: expressed in transfected cells; host or cells: HEK cells, BacMam virus transduction
Method in brief: (§1)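 Frozen HEK cells, previously BacMam-infected 24 h to express either receptor, are stimulated for 45 min at 37° C in IBMX-containing (0.5 mM) HBSS. The reaction is then terminated with HTRF reagents in lysis buffer.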

[2] = target: T2, human GLP2 receptor (Homo sapiens, UniProt O95838); test: cAMP accumulation assay, functional agonism of human GLP2 receptor; format: cell-based; settings: HEK cells infected with human GLP2 receptor BacMam virus, HTRF cAMP; for Emax: HEK293, read-out: Human GLP-2R agonist cAMP Emax; for EC50: read-out: Human GLP-2R agonist cAMP pEC50 (converted)
T2 construct: expressed in transfected cells; host or cells: HEK cells, BacMam virus transduction
T2 sequence (O95838 1-553): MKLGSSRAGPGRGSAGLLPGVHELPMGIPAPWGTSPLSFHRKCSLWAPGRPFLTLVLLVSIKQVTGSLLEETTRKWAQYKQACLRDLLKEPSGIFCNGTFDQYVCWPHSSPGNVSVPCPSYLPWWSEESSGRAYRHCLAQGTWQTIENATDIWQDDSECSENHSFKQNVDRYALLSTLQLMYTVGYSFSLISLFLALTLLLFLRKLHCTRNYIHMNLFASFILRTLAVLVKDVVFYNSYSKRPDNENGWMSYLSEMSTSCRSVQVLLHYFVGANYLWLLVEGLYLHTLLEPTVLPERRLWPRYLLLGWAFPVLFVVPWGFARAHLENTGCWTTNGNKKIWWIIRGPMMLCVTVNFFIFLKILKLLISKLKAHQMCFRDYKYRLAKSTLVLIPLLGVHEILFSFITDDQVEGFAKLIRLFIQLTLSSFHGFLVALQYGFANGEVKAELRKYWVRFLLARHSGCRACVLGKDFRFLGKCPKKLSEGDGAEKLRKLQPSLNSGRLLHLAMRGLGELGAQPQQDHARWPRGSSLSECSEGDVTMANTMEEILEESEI
Method in brief: as §1

[3] = target: T3, mouse GLP2 receptor (Mus musculus, UniProt Q5IXF8); test: cAMP accumulation assay, functional agonism of mouse GLP2 receptor; format: cell-based; settings: HEK cells transiently transfected with mouse GLP2 receptor, HTRF cAMP; for Emax: HEK293, read-out: Mouse GLP-2R agonist cAMP Emax; for EC50: read-out: Mouse GLP-2R agonist cAMP pEC50 (converted)
T3 construct: expressed in transfected cells; host or cells: HEK cells, transient transfection with GeneJuice
T3 sequence (Q5IXF8 1-512): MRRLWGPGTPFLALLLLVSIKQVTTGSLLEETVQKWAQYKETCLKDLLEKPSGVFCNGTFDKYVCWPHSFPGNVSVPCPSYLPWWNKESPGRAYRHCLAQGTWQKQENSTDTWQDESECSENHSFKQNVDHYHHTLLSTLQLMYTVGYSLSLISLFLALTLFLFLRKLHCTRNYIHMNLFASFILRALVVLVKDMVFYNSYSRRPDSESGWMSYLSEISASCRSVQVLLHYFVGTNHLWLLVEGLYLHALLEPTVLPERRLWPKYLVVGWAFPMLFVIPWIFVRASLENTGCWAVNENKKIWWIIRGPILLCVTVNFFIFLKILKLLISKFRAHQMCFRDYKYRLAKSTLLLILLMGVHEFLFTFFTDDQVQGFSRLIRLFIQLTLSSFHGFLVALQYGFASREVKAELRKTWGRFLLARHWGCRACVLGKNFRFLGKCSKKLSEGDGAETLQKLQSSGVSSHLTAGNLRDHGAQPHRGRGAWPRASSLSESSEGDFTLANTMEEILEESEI
Method in brief: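 Transiently transfected HEK cells (24 h, frozen, 8000/well) in HBSS with 0.5 mM IBMX exposed to compound concentration series for 45 min at 37 °C. cAMP measured by HTRF after lysis and 1 h at RT; pEC50 from four-parameter concentration-response fit.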

[4] = Stability of peptides in Fasted-State Simulated Intestinal Fluid (FaSSIF); format: in vitro ADME; settings: FaSSIF with 10 mg/ml pancreatin, 37° C.; for remaining at 0.5 h: t=30 mins, pH 6.5, 10 mg/ml pancreatin
Procedure: Stability of peptides was tested in Fasted-State Simulated Intestinal Fluid (FaSSIF) prepared according to manufacturer's protocol (Biorelevant, art.no. FFF01, pH 6.5). […] FaSSIF was pre-incubated for 15 min at 37° C. and spiked with test and reference item working solutions. Experiments were conducted in duplicate in a non-serial manner. The total incubation volume per replicate was 150 μl. Sampling time points for test items were 0, 0.5, 2, 5, 10, 15 and 30 min. All samples and calibration standards (prepared in FaSSIF) were precipitated by addition of 300 μl precipitant (ACN / 2% acetic acid / 0.2% HFBA, (precipitation reagent, PR)) containing internal standard (ISTD) to 150 μl sample. After incubation for 1 h at room temperature all samples were centrifuged for 10 min at 2,200×g (room temperature).

T1 sequence (P43220 24-463): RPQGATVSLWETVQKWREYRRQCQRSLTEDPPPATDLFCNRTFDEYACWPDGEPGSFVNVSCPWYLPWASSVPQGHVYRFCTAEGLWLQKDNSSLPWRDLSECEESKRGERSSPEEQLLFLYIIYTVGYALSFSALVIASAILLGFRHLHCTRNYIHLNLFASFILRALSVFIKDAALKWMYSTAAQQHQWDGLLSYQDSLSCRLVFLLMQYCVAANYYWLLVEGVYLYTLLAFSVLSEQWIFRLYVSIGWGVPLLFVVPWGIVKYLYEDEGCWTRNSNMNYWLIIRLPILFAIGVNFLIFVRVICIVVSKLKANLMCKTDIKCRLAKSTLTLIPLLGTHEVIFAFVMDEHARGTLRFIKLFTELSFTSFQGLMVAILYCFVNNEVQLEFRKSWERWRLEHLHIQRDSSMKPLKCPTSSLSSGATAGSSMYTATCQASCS

Emax [1] [%] | EC50 [1] [nM] | Emax [2] [%] | EC50 [2] [nM] | Emax [3] [%] | EC50 [3] [nM] | remaining at 0.5 h [4] [%] | remaining at 0.25 h ([4]; FaSSIF pH 6.5 with 10 mg/ml pancreatin, t = 15 mins) [%] | SMILES
95.4 | 0.251 | 103 | 0.01 | 101 | 0.794 | 12.2 | – | CCCC[C@@H]1NC(=O)[C@H](CCC(=O)O)NC(=O)[C@@H](NC(=O)[C@H](CO)NC(=O)[C@](C)(Cc2ccccc2F)NC(=O)[C@H](CO)NC(=O)[C@@H](C)NC(=O)[C@H](CC(=O)O)NC(=O)C(C)(C)NC(=O)[C@@H](N)Cc2c[nH]cn2)CCCCNC(=O)C[C@@H](C(=O)N[C@H](C(=O)N[C@@H](CC(C)C)C(=O)N[C@@H](CC(=O)O)C(=O)N[C@H]2CCC(=O)NCCCC[C@@H](C(=O)N[C@@H](CC(=O)O)C(=O)N[C@@H](Cc3ccccc3)C(=O)N[C@H](C(=O)N[C@@H](CC(N)=O)C(=O)N[C@@H](Cc3c[nH]c4ccccc34)C(=O)N[C@@H](CC(C)C)C(=O)N[C@H](C(=O)N[C@@H](CCC(N)=O)C(=O)N[C@H]3CCC(=O)NCCCC[C@@H](C(N)=O)NC(=O)[C@H]([C@@H](C)O)NC(=O)[C@H]([C@@H](C)CC)NC(=O)[C@H](CCCCN)NC3=O)[C@@H](C)CC)[C@@H](C)CC)NC(=O)[C@H](C)NC(=O)[C@H](C)NC(=O)[C@H](CCCCN)NC2=O)[C@@H](C)CC)NC(=O)[C@@H](Cc2ccccc2)NC1=O [Example 19] (H-H[Aib]D[dA]S[αMePhe(2-F)]SKE[Nle][dF]DILDEKAAKDFINWLIQEKITK-NH2; lactam 8-12, 16-20, 29-33 (inferred); C-terminus assumed)
92.7 | 0.398 | 104 | 0.00794 | 94.5 | 1.58 | 6.8 | – | CCCC[C@@H]1NC(=O)[C@H](CCC(=O)O)NC(=O)[C@@H](NC(=O)[C@H](CO)NC(=O)[C@H](Cc2ccccc2)NC(=O)[C@H](CO)NC(=O)CNC(=O)[C@H](Cc2nn[nH]n2)NC(=O)C(C)(C)C(=O)NCCc2c[nH]cn2)CCCCNC(=O)C[C@@H](C(=O)N[C@H](C(=O)N[C@@H](CC(C)C)C(=O)N[C@@H](CC(=O)O)C(=O)N[C@H]2CCC(=O)NCCCC[C@@H](C(=O)N[C@@H](CC(=O)O)C(=O)N[C@@H](Cc3ccccc3)C(=O)N[C@H](C(=O)N[C@@H](CC(N)=O)C(=O)N[C@@H](Cc3c[nH]c4ccccc34)C(=O)N[C@@H](CC(C)C)C(=O)N[C@H](C(=O)N[C@@H](CCC(N)=O)C(=O)N[C@H]3CCC(=O)NCCCC[C@@H](C(N)=O)NC(=O)[C@H]([C@@H](C)O)NC(=O)[C@H]([C@@H](C)CC)NC(=O)[C@H](CCCCN)NC3=O)[C@@H](C)CC)[C@@H](C)CC)NC(=O)[C@H](C)NC(=O)[C@H](C)NC(=O)[C@H](CCCCN)NC2=O)[C@@H](C)CC)NC(=O)[C@@H](Cc2ccccc2)NC1=O [Example 22] ({Malonyl(2,2-Me2,histaminyl)}-[Ala(1H-tetrazol-5-yl)]GSFSKE[Nle][dF]DILDEKAAKDFINWLIQEKITK-NH2; lactam 6-10, 14-18, 27-31 (inferred); C-terminus assumed)
93.2 | 0.794 | 104 | 0.631 | – | – | – | 26.9 | CCCC[C@@H]1NC(=O)[C@H](CCC(=O)O)NC(=O)[C@H](CC(=O)O)NC(=O)[C@@H](NC(=O)[C@H](Cc2ccccc2)NC(=O)[C@H](CO)NC(=O)CNC(=O)[C@H](CC(=O)O)NC(=O)C(C)(C)NC(=O)[C@@H](N)Cc2c[nH]cn2)CCC(=O)NCCCC[C@@H](C(=O)N[C@H](C(=O)N[C@H](C(=O)N[C@@H](CC(C)C)C(=O)N[C@@H](CC(=O)O)C(=O)N[C@@H](CC(C)C)C(=O)N[C@@H](CCCCN)C(=O)N[C@@H](C)C(=O)N[C@@H](C)C(=O)N[C@@H](CCCCN)C(=O)N[C@@H](CC(=O)O)C(=O)N[C@@H](Cc2ccccc2)C(=O)N[C@H](C(=O)N[C@@H](CC(N)=O)C(=O)N[C@@H](Cc2c[nH]c3ccccc23)C(=O)N[C@@H](CC(C)C)C(=O)N[C@H](C(=O)N[C@@H](CCC(N)=O)C(=O)N[C@H](C(=O)N[C@H]2CCC(=O)NCCCC[C@@H](C(N)=O)NC(=O)[C@H]([C@@H](C)O)NC(=O)[C@H]([C@@H](C)CC)NC2=O)[C@@H](C)O)[C@@H](C)CC)[C@@H](C)CC)[C@@H](C)CC)[C@@H](C)O)NC1=O [Example 111] (H-H[Aib]DGSFEDE[Nle]KTILDLKAAKDFINWLIQTEITK-NH2; lactam 7-11, 30-33 (inferred); C-terminus assumed)
